Several values for one entry are separate records, joined by “and”; a condition that tells them apart may be missing. Equal values may be shown once.

The results in this text go back to publication PMC11574108, “4-Furanylvinylquinoline derivative as a new scaffold for the design of oxidative stress initiator and glucose transporter inhibitor drugs” (Scientific Reports, 2024).

One series deals with HCT 116 p53+/+. The series is described as follows: Monolayer antiproliferative MTS assay. It is filed as cell-based, human. To be noted: 2D monolayer; for IC50: MTS, 72-h incubation; for SI (selectivity index) HCT 116 p53+/+: relative to NHDF. An excerpt:
(§1) The human colon carcinoma cell line HCT 116 with wild-type p53 (p53^+/+) and the human glioblastoma cell line U-251 were obtained from ATCC, while the HCT 116 with a p53 deletion (p53^−/−) was kindly provided by Prof. M. Rusin from the Maria Sklodowska-Curie Memorial Cancer Center and Institute of Oncology in Gliwice, Poland. The human chronic myelogenous leukaemia cell line K562 and the normal human cell dermal fibroblast cell line NHDF were purchased from Sigma-Aldrich and PromoCell, respectively. Both the HCT 116 and U-251 cell lines were cultured in Dulbecco’s modified Eagle’s medium (DMEM) supplemented with 10% inactivated foetal bovine serum (FBS). The DMEM for the NHDF contained 15% non-inactivated FBS. K562 cells were cultured in RPMI medium completed by 10% inactivated FBS. Additionally, the media were supplemented with antibiotics (streptomycin and penicillin – 1% v/v; Sigma-Aldrich). The cell culture was conducted in 75 cm^2 flasks (Nunc) under standard conditions (37 °C, 5% CO2 humidified atmosphere). Furthermore, the cell lines were frequently tested for mycoplasma using the qRT-PCR technique with specific Mycoplasma primers to confirm the lack of contamination.
(§2) The cells were seeded in 96-well plates (Nunc) with 5,000 or 4,000 cells per well for the cancer cells and NHDF, respectively, and incubated under standard conditions at 37 °C overnight. The culture media were then changed for freshly prepared solutions of the tested compounds in various concentrations. After 72-h incubation the antiproliferative assay was carried out as follows: the solutions of the compounds were changed in each well to 100 µL DMEM without phenol red and 20 µL of CellTiter 96 AQueous One Solution-MTS (Promega). The plates were incubated for 1 h at 37 °C, and the absorbance was then measured at 490 nm using a multi-plate reader (Synergy 4, BioTek). The experiment for each sample was repeated at least three times.
(§3) Additionally, the compounds were also tested for their cytotoxicity against normal cells – human dermal fibroblasts (NHDF).
A general note: Formazan colour is commonly taken as a measure of viable cells.

Another series relates to HCT 116 p53-/-. The series is described as follows: Monolayer antiproliferative MTS assay. The class given is cell-based, human. To be noted: 2D monolayer; for IC50: MTS, 72-h incubation; for SI (selectivity index) HCT 116 p53-/-: relative to NHDF.
Source text: as §1, §2, §3

A further series deals with NHDF. The series is described as follows: Monolayer MTS cytotoxicity against normal cells. The class given is cell-based. To be noted: normal human dermal fibroblasts, 72-h incubation.
Source text: as §1, §2, §3

On to `Oc1cccc2ccc(/C=C/c3ccco3)nc12` [Compound 1], for which the IC50 in the series with HCT 116 p53+/+ and with HCT 116 p53-/- was above 25 µM in each case.

For the compound `Cc1ccc(/C=C/c2ccc3cccc(O)c3n2)o1` [Compound 2], the IC50 in the series with HCT 116 p53+/+ and in the series on HCT 116 p53-/- was above 25 µM in each case.

As to `O=[N+]([O-])c1ccc(/C=C/c2ccc3cccc(O)c3n2)o1` [Compound 3], the melting point (in general, the temperature, or range, at which the solid turns liquid) lay in the range of 189 to 191 °C.

`CC(=O)Oc1cccc2ccc(/C=C/c3ccc([N+](=O)[O-])o3)nc12` [Compound 4]: the melting point lay within 173 to 175 °C. For the same compound, the “SI (selectivity index) HCT 116 p53+/+” value with HCT 116 p53+/+ is on record as 3.35. In the series on HCT 116 p53+/+ (Homo sapiens, HCT-116, 72 h), the IC50 (as a rule, the concentration at which inhibition is half-maximal) stood at 0.2 ± 0.03 µM. For the same compound, the “SI (selectivity index) HCT 116 p53-/-” value in the series on HCT 116 p53-/- worked out at 2.79. Further, the IC50 in the series with HCT 116 p53-/- (Homo sapiens, HCT-116, 72 h) is 0.24 ± 0.05 µM. Further, in the series on NHDF (NHDF), the IC50 worked out at 0.67 ± 0.08 µM.

In turn, `O=[N+]([O-])c1ccc(/C=C/c2cc(O)c3ccccc3n2)o1` [Compound 5] returned a melting point of 306 to 308 °C. In addition, the “SI (selectivity index) HCT 116 p53+/+” value in the series on HCT 116 p53+/+ was 1.50. Besides, the IC50 with HCT 116 p53+/+ (Homo sapiens, HCT-116, 72 h) is 0.3 ± 0.1 µM. Further, the “SI (selectivity index) HCT 116 p53-/-” value with HCT 116 p53-/- turned out to be 1.50. Besides, the IC50 in the series with HCT 116 p53-/- (Homo sapiens, HCT-116, 72 h) is 0.3 ± 0.07 µM. Besides, in the series on NHDF (NHDF), the IC50 came to 0.45 ± 0.07 µM.

Consider `Oc1c(Cl)cc(Cl)c2ccc(C=Cc3ccco3)nc12` [Compound 6], for which the IC50 in the series on HCT 116 p53+/+ was 4 µM and 4.01 µM; with HCT 116 p53-/-, 2.7 µM and 2.72 µM; with NHDF, above 25 µM.

With `O=[N+]([O-])c1ccc(/C=C/c2ccc3c(Cl)cc(Cl)c(O)c3n2)o1` [Compound 7], the melting point lay in the range of 270 to 271 °C. In addition, the “SI (selectivity index) HCT 116 p53+/+” value in the series with HCT 116 p53+/+ is reported as above 7.23. Besides, the IC50 in the series with HCT 116 p53+/+ (Homo sapiens, HCT-116, 72 h) turned out to be 3.46 ± 0.34 µM. In the series with HCT 116 p53-/-, the “SI (selectivity index) HCT 116 p53-/-” value is above 18.80. The 50% inhibitory concentration (IC50) in the series on HCT 116 p53-/- (Homo sapiens, HCT-116, 72 h) stood at 1.33 ± 0.25 µM. For the same compound, in the series with NHDF (NHDF), the IC50 is above 25 µM.

Take `CC(=O)Oc1c(Cl)cc(Cl)c2ccc(/C=C/c3ccc([N+](=O)[O-])o3)nc12` [Compound 8]: the melting point is 220 to 222 °C. In addition, in the series on HCT 116 p53+/+, the “SI (selectivity index) HCT 116 p53+/+” value is 5.46. In addition, the IC50 in the series with HCT 116 p53+/+ (Homo sapiens, HCT-116, 72 h) is 2.08 ± 0.4 µM. Besides, the “SI (selectivity index) HCT 116 p53-/-” value with HCT 116 p53-/- came out at 10.13. In addition, the IC50 in the series with HCT 116 p53-/- (Homo sapiens, HCT-116, 72 h) was determined as 1.12 ± 0.51 µM. For the same compound, the IC50 with NHDF (NHDF) amounted to 11.3 ± 2.53 µM.

With `O=[N+]([O-])c1ccccc1/C=C/c1ccnc2ccccc12` [Compound 9], the melting point lay within 161 to 163 °C. Further, the IC50 with HCT 116 p53+/+ (Homo sapiens, HCT-116, 72 h) was above 25 µM. Besides, the IC50 in the series with HCT 116 p53-/- (Homo sapiens, HCT-116, 72 h) is above 25 µM.

As to `O=[N+]([O-])c1cccc(/C=C/c2ccnc3ccccc23)c1` [Compound 10], the melting point fell in the range of 111 to 112 °C. In addition, the IC50 in the series with HCT 116 p53+/+ (Homo sapiens, HCT-116, 72 h) was above 25 µM. In the series with HCT 116 p53-/- (Homo sapiens, HCT-116, 72 h), the IC50 was above 25 µM.

Turning to `O=[N+]([O-])c1ccc(/C=C/c2ccnc3ccccc23)cc1` [Compound 11], the melting point lay in the range of 228 to 229 °C. The IC50 with HCT 116 p53+/+ (Homo sapiens, HCT-116, 72 h) is above 25 µM. Also, the IC50 in the series with HCT 116 p53-/- (Homo sapiens, HCT-116, 72 h) is above 25 µM.

Take `O=[N+]([O-])c1ccc(/C=C/c2ccnc3ccccc23)c([N+](=O)[O-])c1` [Compound 12]: the melting point fell in the range of 200 to 201 °C. The IC50 in the series on HCT 116 p53+/+ (Homo sapiens, HCT-116) is above 25 µM. Further, the IC50 in the series on HCT 116 p53-/- (Homo sapiens, HCT-116) was above 25 µM.
